How the values were obtained:
[1] = target: T1, GST tagged LXRalpha LBD (ligand binding domain) (Homo sapiens, UniProt Q13133); assay: LanthaScreen TR-FRET Liver X Receptor Coactivator Assay, LXR alpha-LBD (co-activator recruitment; IP and % Emax relative to T0901317); assay type: biochemical; details: for LXR alpha IP (nM) / EC50: Inflection Point of co-activator recruitment, LXR alpha-LBD, TR-FRET; for Emax: efficacy at max dose in relation to reference T0901317, LXR alpha-LBD, read-out: LXR alpha actiivty at max dose (%)
T1 construct: purchased Invitrogen pv4655
T1 sequence (Q13133 209-447 limits assumed): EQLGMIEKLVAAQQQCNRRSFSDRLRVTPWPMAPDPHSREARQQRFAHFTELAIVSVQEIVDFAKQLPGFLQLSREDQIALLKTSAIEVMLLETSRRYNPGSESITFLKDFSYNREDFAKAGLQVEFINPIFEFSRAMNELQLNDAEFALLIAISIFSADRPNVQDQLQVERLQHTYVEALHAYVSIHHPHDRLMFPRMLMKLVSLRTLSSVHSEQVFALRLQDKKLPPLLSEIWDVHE
Method in brief: (§1)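 Compounds were first combined with the GST-LBD protein. A premixed fluorescein coactivator peptide and terbium-labelled anti-GST antibody was then added. Plates were incubated at room temperature and TR-FRET measured.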

[2] = target: T2, GST tagged LXRbeta LBD (ligand binding domain) (Homo sapiens, UniProt P55055); assay: LanthaScreen TR-FRET Liver X Receptor Coactivator Assay, LXR beta-LBD (co-activator recruitment; IP and % Emax relative to T0901317); assay type: biochemical; details: for EC50: Inflection Point of co-activator recruitment, LXR beta-LBD, TR-FRET; for Emax: efficacy at max dose in relation to reference T0901317, LXR beta-LBD, read-out: LXR beta actiivty at max dose (%)
T2 construct: purchased Invitrogen pv4658.pps
T2 sequence (P55055 222-460 limits assumed): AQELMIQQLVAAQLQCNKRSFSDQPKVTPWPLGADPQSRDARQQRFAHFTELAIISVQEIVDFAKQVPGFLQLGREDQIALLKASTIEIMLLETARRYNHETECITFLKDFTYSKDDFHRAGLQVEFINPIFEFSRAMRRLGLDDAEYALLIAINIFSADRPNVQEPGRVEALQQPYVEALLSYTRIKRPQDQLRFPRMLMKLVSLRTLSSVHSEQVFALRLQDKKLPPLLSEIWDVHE
Method in brief: as §1

| LXR alpha IP (nM) [1] | Emax [1] | EC50 [2] | Emax [2] | EC50 [1] | SMILES |
| --- | --- | --- | --- | --- | --- |
| No IP | 11% | 5040 nM | 46% | – | CN(C)C(=O)c1ccc(N2CCC(CCCN(C)C(=O)C(O)C(F)(F)F)CC2)nc1Cl (centres unmarked) [Example 1-52, 2-chloro-N,N-dimethyl-6-(4-(3-(3,3,3-trifluoro-2-hydroxy-N-methylpropanamido)propyl)piperidin-1-yl)nicotinamide] |
| No IP | 0% | 580 nM | 43% | – | COc1cccc([C@@](O)(C(=O)N(C)CCCC2CCN(c3ccc(C(=O)N(C)C)c(Cl)n3)CC2)C(F)F)c1 [Example 1-53, (R)-2-chloro-6-(4-(3-(3,3-difluoro-2-hydroxy-2-(3-methoxyphenyl)-N-methylpropanamido)propyl)piperidin-1-yl)-N,N-dimethylnicotinamide] |
| No IP | 15% | 579 nM | 49% | – | CN(C)C(=O)c1ccc(N2CCC(CCCN(C)C(=O)[C@]3(c4ccccc4)CCOC3)CC2)nc1Cl [Example 1-54, (S)-2-chloro-N,N-dimethyl-6-(4-(3-(N-methyl-3-phenyltetrahydrofuran-3-carboxamido)propyl)piperidin-1-yl)nicotinamide] |
| No IP | 16% | 856 nM | 48% | – | CN(C)C(=O)c1ccc(N2CCC(CCCN(C)C(=O)[C@@]3(c4ccccc4)CCOC3)CC2)nc1Cl [Example 1-55, (R)-2-chloro-N,N-dimethyl-6-(4-(3-(N-methyl-3-phenyltetrahydrofuran-3-carboxamido)propyl)piperidin-1-yl)nicotinamide] |
| – | 43% | 168 nM | 80% | 2610 nM | CN(C)C(=O)c1ccc(N2CCC(CCCN(C)C(=O)C3(C(F)(F)F)CCCO3)CC2)nc1Cl (centres unmarked) [Example 1-56, 2-chloro-N,N-dimethyl-6-(4-(3-(N-methyl-2-(trifluoromethyl)tetrahydrofuran-2-carboxamido)propyl)piperidin-1-yl)nicotinamide] |
| No IP | 0% | 268 nM | 48% | – | CN[C@@](C(=O)N(C)CCCC1CCN(c2ccc(C(=O)N(C)C)c(Cl)n2)CC1)(c1cccc(OC)c1)C(F)(F)F [Example 1-57, (R)-2-chloro-N,N-dimethyl-6-(4-(3-(3,3,3-trifluoro-2-(3-methoxyphenyl)-N-methyl-2-(methylamino)propanamido)propyl)piperidin-1-yl)nicotinamide] |
| – | 37% | 37 nM | 86% | 2780 nM | CN(C)C(=O)c1ccc(N2CCC(CCCN(C)C(=O)[C@](O)(c3cccc(O)c3)C(F)(F)F)CC2)nc1Cl [Example 1-58, (R)-2-chloro-N,N-dimethyl-6-(4-(3-(3,3,3-trifluoro-2-hdyroxy-2-(3-hydroxyphenyl)-N-methylpropanamido)propyl)piperidin-1-yl)nicotinamide] |
| – | 24% | 118 nM | 80% | 2860 nM | COc1ccccc1[C@]1(C(=O)N(C)CCCC2CCN(c3ccc(C(=O)N(C)C)c(Cl)n3)CC2)CCCO1 [Example 1-59, (S)-2-chloro-6-(4-(3-(2-(2-methoxyphenyl)-N-methyltetrahydrofuran-2-carboxamido)propyl)piperidin-1-yl)-N,N-dimethylnicotinamide] |
| – | 33% | 60 nM | 93% | 1450 nM | COc1ccccc1[C@@]1(C(=O)N(C)CCCC2CCN(c3ccc(C(=O)N(C)C)c(Cl)n3)CC2)CCCO1 [Example 1-60, (R)-2-chloro-6-(4-(3-(2-(2-methoxyphenyl)-N-methyltetrahydrofuran-2-carboxamido)propyl)piperidin-1-yl)-N,N-dimethylnicotinamide] |
| No IP | 0% | 1380 nM | 23% | – | CC(C)=C(C(=O)N(C)CCCC1CCN(c2ccc(C(=O)N(C)C)c(Cl)n2)CC1)c1ccccc1 [Example 1-61, 2-chloro-6-(4-(3-(N,3-dimethyl-2-phenylbut-2-enamido)propyl)piperidin-1-yl)-N,N-dimethylnicotinamide] |
| No IP | 0% | 694 nM | 28% | – | CN(C)C(=O)c1ccc(N2CCC(CCCN(C)C(=O)[C@]3(c4cccc(Cl)c4)CCCO3)CC2)nc1Cl [Example 1-62, (R)-2-chloro-6-(4-(3-(2-(3-chlorophenyl)-N-methyltetrahydrofuran-2-carboxamido)propyl)piperidin-1-yl)-N,N-dimethylnicotinamide] |
| No IP | 0% | 368 nM | 40% | – | CN(C)C(=O)c1ccc(N2CCC(CCCN(C)C(=O)[C@@]3(c4cccc(Cl)c4)CCCO3)CC2)nc1Cl [Example 1-63, (S)-2-chloro-6-(4-(3-(2-(3-chlorophenyl)-N-methyltetrahydrofuran-2-carboxamido)propyl)piperidin-1-y)-N,N-dimethylnicotinamide] |
| No IP | 0% | 285 nM | 26% | – | CN(C)C(=O)c1ccc(N2CCC(CCCN(C)C(=O)[C@@]3(c4ccccc4Cl)CCCO3)CC2)nc1Cl [Example 1-64, (S)-2-chloro-6-(4-(3-(2-(2-chlorophenyl)-N-methyltetrahydrofuran-2-carboxamido)propyl)piperidin-1-yl)-N,N-dimethylnicotinamide] |
| No IP | 7% | 138 nM | 82% | – | CN(C)C(=O)c1ccc(N2CCC(CCCN(C)C(=O)[C@]3(c4ccccc4)CC(F)(F)CO3)CC2)nc1Cl [Example 1-66, (R)-2-chloro-6-(4-(3-(4,4-difluoro-N-methyl-2-phenyltetrahydrofuran-2-carboxamido)propyl)piperidin-1-yl)-N,N-dimethylnicotinamide] |
| No IP | 18% | 686 nM | 51% | – | COc1cccc([C@@](O)(C(=O)N(C)CCCC2CCN(c3ccc(C(=O)NC(C)C)c(Cl)n3)CC2)C(F)(F)F)c1 [Example 2-1, (R)-2-chloro-N-isopropyl-6-(4-(3-(3,3,3-trifluoro-2-hydroxy-2-(3-methoxyphenyl)-N-methylpropanamido)propyl)piperidin-1-yl)nicotinamide] |
| No IP | 7% | 688 nM | 44% | – | COc1cccc([C@@](O)(C(=O)N(C)CCCC2CCN(c3ccc(C(=O)NC4CC4)c(Cl)n3)CC2)C(F)(F)F)c1 [Example 2-2, (R)-2-chloro-N-cyclopropyl-6-(4-(3-(3,3,3-trifluoro-2-hydroxy-2-(3-methoxyphenyl)-N-methylpropanamido)propyl)piperidin-1-yl)nicotinamide] |
| No IP | 0% | 107 nM | 42% | – | COc1cccc([C@@](O)(C(=O)N(C)CCCC2CCN(c3ccc(C(=O)N(C)C4CC4)c(Cl)n3)CC2)C(F)(F)F)c1 [Example 2-3, (R)-2-chloro-N-cyclopropyl-N-methyl-6-(4-(3-(3,3,3-trifluoro-2-hydroxy-2-(3-methoxyphenyl)-N-methylpropanamido)propyl)piperidin-1-yl)nicotinamide] |
| No IP | 0% | 24 nM | 61% | – | COc1cccc([C@@](O)(C(=O)N(C)CCCC2CCN(c3ccc(C(=O)N(C)C(C)C)c(Cl)n3)CC2)C(F)(F)F)c1 [Example 2-4, (R)-2-chloro-N-isopropyl-N-methyl-6-(4-(3-(3,3,3-trifluoro-2-hydroxy-2-(3-methoxyphenyl)-N-methylpropanamido)propyl)piperidin-1-yl)nicotinamide] |
| – | 23% | 28 nM | 63% | 705 nM | COc1cccc([C@@](O)(C(=O)N(C)CCCC2CCN(c3ccc(C(=O)N(C)CCO)c(Cl)n3)CC2)C(F)(F)F)c1 [Example 2-5, (R)-2-chloro-N-(2-hydroxyethyl)-N-methyl-6-(4-(3-(3,3,3-trifluoro-2-hydroxy-2-(3-methoxyphenyl)-N-methylpropanamido)propyl)piperidin-1-yl)nicotinamide] |
| No IP | 0% | 126 nM | 50% | – | COc1cccc([C@@](O)(C(=O)N(C)CCCC2CCN(c3ccc(C(=O)N4CCCC4)c(Cl)n3)CC2)C(F)(F)F)c1 [Example 2-6, (R)-N-(3-(1-(6-chloro-5-(pyrrolidine-1-carbonyl)pyridin-2-yl)piperidin-4-yl)propyl)-3,3,3-trifluoro-2-hydroxy-2-(3-methoxyphenyl)-N-methylpropanamide] |

Source: patent publication US10961215B2, “N-aryl and N-heteroaryl piperidine derivatives as liver X receptor beta agonists, compositions, and their use” (Merck Sharp & Dohme Corp., priority 2016, dated 2021)
